Paper PMC6268968 (Molecules, 2012)
pIC50: −log10 of the molar value.

These compounds were tested against T1, Acetylcholinesterase (Electrophorus electricus, UniProt O42275) (assay: Ellman spectrophotometric assay (acetylthiocholine/DTNB, […] nm)).
T1 construct: gene ache
Type: biochemical

T1 sequence (O42275 24-633): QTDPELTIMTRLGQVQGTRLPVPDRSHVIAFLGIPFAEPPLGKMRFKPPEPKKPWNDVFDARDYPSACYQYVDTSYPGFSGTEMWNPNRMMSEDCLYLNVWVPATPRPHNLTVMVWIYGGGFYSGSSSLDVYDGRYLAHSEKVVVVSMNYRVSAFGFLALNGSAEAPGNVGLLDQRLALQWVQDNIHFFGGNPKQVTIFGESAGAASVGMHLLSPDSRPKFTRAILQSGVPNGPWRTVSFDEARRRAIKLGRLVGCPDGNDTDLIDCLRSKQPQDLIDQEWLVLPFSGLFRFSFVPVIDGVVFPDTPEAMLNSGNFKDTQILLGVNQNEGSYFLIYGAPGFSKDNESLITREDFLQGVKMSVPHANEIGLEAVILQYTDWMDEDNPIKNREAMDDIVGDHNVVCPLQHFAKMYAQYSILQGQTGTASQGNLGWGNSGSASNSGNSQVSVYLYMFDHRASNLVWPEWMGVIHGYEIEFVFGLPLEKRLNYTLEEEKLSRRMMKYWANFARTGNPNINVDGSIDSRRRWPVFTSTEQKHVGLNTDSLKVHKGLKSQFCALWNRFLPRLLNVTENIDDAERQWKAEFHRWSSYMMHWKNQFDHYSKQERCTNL

SMILES	pIC50
O=C(/C=C/c1ccc(O)cc1)NCCc1ccc(O)cc1 [compound 1, trans-N-coumaroyltyramine]	4.01
COc1cc(/C=C/C(=O)NCCc2ccc(O)cc2)ccc1O [compound 2, trans-N-feruloyltyramine]	4.07
O=C(/C=C/c1ccc(O)c(O)c1)NCCc1ccc(O)cc1 [compound 3, trans-N-caffeoyltyramine]	4.07
